A short description of assay [1]: inhibitors of PGC1a acetylation in cells, dose response, cell-based, cherry-picked samples (AID 720514).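 Note: potency may reflect raised or lowered acetylation signal.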 The class given is functional.
Assay [2] in a line: HepG2 cell cytotoxicity, dose response, cytotoxicity control, plate reader, dry powder samples (AID 1159569).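 Note: inhibitor potency with signal falling toward the positive control level.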 Format: functional, cell-based.
The nature of assay [3]: HepG2 cell cytotoxicity, dose response, cytotoxicity control, cherry-picked samples (AID 1159577). The class given is functional, cell-based.
Assay [4] can be described thus: P. falciparum ATP4 D1247Y mutant growth inhibitors, dose response, NITD609-resistant line, SYBR Green, dry powder (AID 1159571).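 Note: parasites synchronized at ring stage by sorbitol before testing.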 The class given is functional, cell-based.
Assay [5] is described as follows: P. falciparum Dd2 growth inhibitors, dose response, SYBR Green, cherry-picked samples (AID 1159567). The class given is functional, cell-based.
Assay [6] in a line: P. falciparum 3D7-ScDHODH growth inhibitors, dose response, SYBR Green, dry powder samples (AID 1159570).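 Note: parasite growth measured after 72 hours of compound exposure.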 The class given is functional, cell-based.
Assay [7] can be described thus: P. falciparum Dd2 growth inhibitors, dose response, SYBR Green, dry powder samples (AID 1159566).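 Note: potency for growth inhibition with lower SYBR green DNA signal.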 The class given is functional, cell-based.
A short description of assay [8]: T. cruzi growth inhibition in host cells, dose response, cell-based, plate reader, dry powder, set 2 (AID 652275). The class given is functional.
Assay [9] in a line: non-specific cell cytotoxicity, dose response, cytotoxicity control for PAX8 inhibitor project, plate reader, dry powder samples (AID 743021). The class given is functional, cell-based.
Assay [10] in a line: A2780 ovarian cancer cell cytotoxicity, dose response, cytotoxicity control, plate reader, dry powder samples (AID 743046). Format: functional, cell-based.
A short description of assay [11]: NIH:OVCAR-3 ovarian cancer cell cytotoxicity, dose response, PAX8 inhibitor project, plate reader, dry powder samples (AID 743044). The class given is functional, cell-based.
Assay [12] in a line: cytotoxicity in OVCAR8 ovarian cancer cells, dose response, PAX8 project, cell-based, plate reader, dry powder samples (AID 743197). The class given is functional. To be noted: OVCAR-8.
A short description of assay [13]: IGROV1 ovarian cancer cell cytotoxicity, dose response, PAX8 inhibitor project, plate reader, dry powder samples (AID 743043). As to conditions: IGROV-1. The class given is functional, cell-based.
The next assay deals with Paired box protein Pax-8 (Homo sapiens, UniProt Q06710). As to the kind of experiment: inhibitors of PAX8-driven TPO luciferase reporter, dose response, RMG-I cells, cherry-pick (AID 687027).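 Note: luciferase reporter driven by Pax8 target thyroperoxidase promoter measured by SteadyGlo luminescence.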 Format: functional, cell-based.
Assay [14] in a line: IOSE-T80 ovarian epithelial cell cytotoxicity, dose response, cytotoxicity control for PAX8 inhibitor project, plate reader, dry powder samples (AID 743045). The class given is functional, cell-based.
In assay [15] the target is T1, Oxysterols receptor LXR-beta (Homo sapiens, UniProt P55055).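 Note: agonist activity at LXR measured by a cell-based luminescence readout across a dose range, run as a counterscreen for daf-12 agonists; HEK293 cells with Gal4-LXR fusion and GAL4-driven luciferase reporter; potency for activation of Gal4-LXR reporter so compounds are agonists.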
T1 sequence (P55055 whole entry): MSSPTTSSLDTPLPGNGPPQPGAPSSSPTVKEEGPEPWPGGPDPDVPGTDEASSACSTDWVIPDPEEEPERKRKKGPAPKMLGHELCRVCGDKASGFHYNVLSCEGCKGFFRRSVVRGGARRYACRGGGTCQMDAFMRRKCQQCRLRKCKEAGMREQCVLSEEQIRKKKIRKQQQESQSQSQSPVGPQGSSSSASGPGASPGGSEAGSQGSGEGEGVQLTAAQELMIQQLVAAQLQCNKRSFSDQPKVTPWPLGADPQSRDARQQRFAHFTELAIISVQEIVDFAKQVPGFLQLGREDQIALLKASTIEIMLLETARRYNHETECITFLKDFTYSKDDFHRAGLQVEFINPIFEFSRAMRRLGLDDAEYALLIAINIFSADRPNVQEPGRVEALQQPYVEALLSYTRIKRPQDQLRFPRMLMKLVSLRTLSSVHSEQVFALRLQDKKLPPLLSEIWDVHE
Format: functional, cell-based.

Assay [16] addresses 1-phosphatidylinositol 4,5-bisphosphate phosphodiesterase gamma-1 (Homo sapiens, UniProt P19174). As to the kind of experiment: Counterscreen for inhibitors of phospholipase C isozymes (PLC-B3): Fluorescence-based biochemical high throughput dose response assay to identify inhibitors of phospholipase C isozymes (PLC-gamma1). (In general: Counterscreens check selectivity or assay interference.)

For assay [17], the target named is T2, Small ubiquitin-related modifier 1 (Homo sapiens, UniProt P63165). Put plainly: inhibitors of SUMO1 peptide binding, dose response, biochemical, fluorescence polarization, uHTS hits (AID 624382). The class given is functional. As to conditions: read-out: IC50_Mean. (In general: In fluorescence polarisation assays a small probe gives low polarisation when free and higher when bound to something large.)

Assay [18] addresses 1-phosphatidylinositol 4,5-bisphosphate phosphodiesterase beta-3 (Homo sapiens, UniProt Q01970). Put plainly: Fluorescence-based biochemical high throughput dose response assay to identify inhibitors of phospholipase C isozymes (PLC-B3).
For assay [19], the target named is T2, Small ubiquitin-related modifier 1. Put plainly: inhibitors of SUMO1 partner interactions, dose response, biochemical, FRET (AID 624383). The class given is functional. To be noted: read-out: IC50_Mean.
Assay [20] concerns the target RNA-editing ligase 1, mitochondrial (Trypanosoma brucei brucei, UniProt P86926). As to the kind of experiment: TbREL1 ligase inhibitors, dose response, biochemical, fluorescence, Trypanosoma brucei (AID 1117295). Format: functional.

Activity calls are given as the source filed them.

One may read the AC50 as the concentration at which the activity in the assay is half-maximal. What is called EC50 is the midpoint of the concentration-response curve.

T2 sequence (P63165 whole entry): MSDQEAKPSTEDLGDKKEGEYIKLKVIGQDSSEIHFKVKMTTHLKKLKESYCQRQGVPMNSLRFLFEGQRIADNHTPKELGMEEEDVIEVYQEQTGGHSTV
Sequence of Paired box protein Pax-8 (Q06710 whole entry): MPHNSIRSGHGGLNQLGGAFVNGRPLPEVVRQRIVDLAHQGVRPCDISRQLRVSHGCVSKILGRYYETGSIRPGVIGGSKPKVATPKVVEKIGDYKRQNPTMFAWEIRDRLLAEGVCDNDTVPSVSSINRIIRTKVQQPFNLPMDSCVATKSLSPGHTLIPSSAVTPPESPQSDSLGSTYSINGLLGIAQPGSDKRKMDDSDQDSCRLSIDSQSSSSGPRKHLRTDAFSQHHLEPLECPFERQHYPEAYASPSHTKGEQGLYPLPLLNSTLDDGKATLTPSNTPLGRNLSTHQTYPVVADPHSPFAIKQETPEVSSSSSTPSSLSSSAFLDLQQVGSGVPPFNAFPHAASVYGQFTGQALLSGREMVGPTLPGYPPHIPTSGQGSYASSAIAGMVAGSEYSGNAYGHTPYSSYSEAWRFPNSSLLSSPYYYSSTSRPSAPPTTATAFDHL
Sequence of 1-phosphatidylinositol 4,5-bisphosphate phosphodiesterase gamma-1 (P19174 whole entry): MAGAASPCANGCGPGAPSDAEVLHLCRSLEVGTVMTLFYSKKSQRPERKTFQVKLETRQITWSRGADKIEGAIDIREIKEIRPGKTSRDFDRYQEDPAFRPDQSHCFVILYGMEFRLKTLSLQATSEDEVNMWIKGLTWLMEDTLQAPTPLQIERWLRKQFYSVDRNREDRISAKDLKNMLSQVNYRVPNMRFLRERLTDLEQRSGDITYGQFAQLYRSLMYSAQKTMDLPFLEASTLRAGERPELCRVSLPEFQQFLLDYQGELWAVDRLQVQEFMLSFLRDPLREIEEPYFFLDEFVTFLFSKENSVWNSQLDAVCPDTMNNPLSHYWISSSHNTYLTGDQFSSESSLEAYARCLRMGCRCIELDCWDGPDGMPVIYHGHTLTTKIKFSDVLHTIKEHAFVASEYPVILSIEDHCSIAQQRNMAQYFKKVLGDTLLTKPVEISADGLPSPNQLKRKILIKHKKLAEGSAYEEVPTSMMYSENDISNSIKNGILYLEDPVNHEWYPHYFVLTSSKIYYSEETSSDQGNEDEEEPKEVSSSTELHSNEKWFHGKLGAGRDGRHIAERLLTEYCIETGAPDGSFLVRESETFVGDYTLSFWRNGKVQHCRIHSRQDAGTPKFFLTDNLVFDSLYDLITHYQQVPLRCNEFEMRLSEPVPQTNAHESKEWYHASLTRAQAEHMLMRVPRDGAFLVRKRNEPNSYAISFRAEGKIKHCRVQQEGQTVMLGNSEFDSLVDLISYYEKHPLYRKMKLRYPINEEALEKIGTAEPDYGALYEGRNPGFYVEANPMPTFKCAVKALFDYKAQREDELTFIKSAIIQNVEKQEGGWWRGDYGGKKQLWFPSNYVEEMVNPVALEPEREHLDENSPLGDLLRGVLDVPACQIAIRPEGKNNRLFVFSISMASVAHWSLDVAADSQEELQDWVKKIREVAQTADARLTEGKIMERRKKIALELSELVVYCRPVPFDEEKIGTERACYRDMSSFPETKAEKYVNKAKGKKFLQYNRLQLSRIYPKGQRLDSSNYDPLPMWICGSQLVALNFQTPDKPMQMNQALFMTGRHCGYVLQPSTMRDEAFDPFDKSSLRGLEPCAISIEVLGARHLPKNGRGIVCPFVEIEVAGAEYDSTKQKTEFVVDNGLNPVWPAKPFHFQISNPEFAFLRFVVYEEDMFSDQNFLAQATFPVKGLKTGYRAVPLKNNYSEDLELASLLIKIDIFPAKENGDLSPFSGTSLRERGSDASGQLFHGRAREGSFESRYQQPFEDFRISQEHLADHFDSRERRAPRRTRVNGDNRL
Sequence of RNA-editing ligase 1, mitochondrial (P86926 whole entry): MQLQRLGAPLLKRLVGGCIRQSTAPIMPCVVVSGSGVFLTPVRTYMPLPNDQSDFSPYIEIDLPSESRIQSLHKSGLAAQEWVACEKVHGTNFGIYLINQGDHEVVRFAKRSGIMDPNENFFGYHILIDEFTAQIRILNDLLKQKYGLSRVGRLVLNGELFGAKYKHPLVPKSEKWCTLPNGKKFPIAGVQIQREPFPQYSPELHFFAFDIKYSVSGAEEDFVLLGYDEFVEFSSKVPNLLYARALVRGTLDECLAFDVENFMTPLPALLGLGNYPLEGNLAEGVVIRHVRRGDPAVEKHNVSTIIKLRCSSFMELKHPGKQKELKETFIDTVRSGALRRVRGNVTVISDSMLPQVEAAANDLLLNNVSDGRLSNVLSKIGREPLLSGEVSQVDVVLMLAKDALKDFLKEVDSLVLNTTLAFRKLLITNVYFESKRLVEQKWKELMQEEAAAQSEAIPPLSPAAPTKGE
Sequence of 1-phosphatidylinositol 4,5-bisphosphate phosphodiesterase beta-3 (Q01970 whole entry): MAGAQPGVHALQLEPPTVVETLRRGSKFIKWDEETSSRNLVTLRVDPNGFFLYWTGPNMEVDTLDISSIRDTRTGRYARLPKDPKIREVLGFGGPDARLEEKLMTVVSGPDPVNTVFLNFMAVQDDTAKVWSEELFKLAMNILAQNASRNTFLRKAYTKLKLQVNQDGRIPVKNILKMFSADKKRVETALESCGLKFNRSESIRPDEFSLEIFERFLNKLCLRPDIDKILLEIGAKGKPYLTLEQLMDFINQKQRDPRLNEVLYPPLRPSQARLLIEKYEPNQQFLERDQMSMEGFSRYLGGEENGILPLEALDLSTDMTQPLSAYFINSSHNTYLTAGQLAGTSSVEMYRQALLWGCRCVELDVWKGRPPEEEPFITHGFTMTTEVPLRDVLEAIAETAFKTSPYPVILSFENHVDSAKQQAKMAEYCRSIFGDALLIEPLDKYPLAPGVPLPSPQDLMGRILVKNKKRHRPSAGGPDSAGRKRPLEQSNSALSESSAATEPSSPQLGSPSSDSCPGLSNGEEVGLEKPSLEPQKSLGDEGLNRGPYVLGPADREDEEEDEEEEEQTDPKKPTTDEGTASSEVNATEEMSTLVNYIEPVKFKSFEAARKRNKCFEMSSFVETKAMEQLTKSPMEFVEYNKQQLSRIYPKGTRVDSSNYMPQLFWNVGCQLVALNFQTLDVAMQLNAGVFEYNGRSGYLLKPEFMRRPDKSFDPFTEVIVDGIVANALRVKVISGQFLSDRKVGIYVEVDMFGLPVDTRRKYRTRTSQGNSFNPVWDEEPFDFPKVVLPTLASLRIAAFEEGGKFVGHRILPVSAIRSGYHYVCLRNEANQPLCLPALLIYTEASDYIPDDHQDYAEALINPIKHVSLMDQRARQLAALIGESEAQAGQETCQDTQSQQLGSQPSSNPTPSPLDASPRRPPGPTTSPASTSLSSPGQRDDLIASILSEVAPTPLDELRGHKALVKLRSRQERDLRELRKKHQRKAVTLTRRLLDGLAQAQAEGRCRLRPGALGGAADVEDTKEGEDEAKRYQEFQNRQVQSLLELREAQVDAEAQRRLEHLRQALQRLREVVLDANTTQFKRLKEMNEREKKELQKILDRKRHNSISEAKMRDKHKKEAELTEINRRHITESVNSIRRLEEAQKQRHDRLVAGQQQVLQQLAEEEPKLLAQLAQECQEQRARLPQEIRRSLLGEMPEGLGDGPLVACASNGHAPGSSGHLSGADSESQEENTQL

`CC(C)CC#Cc1ccc2c(c1)O[C@H](CN(C)Cc1ccccc1)[C@@H](C)CN([C@H](C)CO)S2(=O)=O`: the concentration at half-maximal activity (AC50) in assay [1] was 16.4 µM (active).
For `COc1ccc2c3c(n(C)c2c1)[C@H](CO)N(Cc1ccc(Cl)cc1)CC31CCN(CC2CC2)CC1`, the AC50 was 19.8 µM (active) in [2]; > 39 µM (inactive) in assay [3]; 2.65 µM (active) in [4]; 2.33 µM (active) in assay [5]; 2.85 µM (active) in assay [6]; 2.23 µM (active) in assay [7].
Regarding `CC(=O)N1CCCCN2[C@@H](CO)[C@H](c3ccc(-c4cccc(C(=O)N(C)C)c4)cc3)[C@@H]2C1`, in assay [8], the half-maximal activity concentration (AC50) was 4.94 µM (active).
For `COc1cccc(CN2CCCCN3[C@H](CO)[C@@H](c4ccc(C#Cc5cccnc5)cc4)[C@H]3C2)c1`, the half-maximal activity concentration (AC50) in assay [2] was 14 µM (active); in assay [3] it was 24 µM (active); in assay [4] it was 0.934 µM (active); in assay [5], 0.859 µM (active); in assay [6], 2.04 µM (active); in assay [7], 0.56 µM (active).
As to `CS(=O)(=O)Nc1ccc2c(c1)[C@@H]1C[C@@H](CC(=O)NCc3ccc(-c4ccccc4)cc3)O[C@@H](CO)[C@@H]1O2`, the AC50 is 65.6 µM (active) in [9]; 17.7 µM (active) in [10]; 9.08 µM (active) in assay [11]; 16.5 µM (active) in assay [12]; 17.6 µM (active) in [13]; 3.2 µM (active) on Paired box protein Pax-8. Further, the AC50 in assay [14] was 11.7 µM (active).
As to `OCCN1CCN(c2cnc(-c3ccsc3)cn2)CC1`, the EC50 in [15] is > 67.5 µM (inactive).
Turning to `O=C1NC[C@@H](Cc2ccc(O)cc2)N(CCc2cc(C(F)(F)F)cc(C(F)(F)F)c2)C1=O`, the IC50 is 82.2 µM (inactive) in [16], > 66.6 µM (inactive) in [17], > 122 µM (inactive) in [18] and 9.75 µM (active) in assay [19].
As for `COC(=O)C1=C(C)N(Cc2cccc(C(F)(F)F)c2)C(NCC2CC2)=NC1c1ccccc1C(F)(F)F` (configuration not stated), in assay [20], the IC50 was > 96.6 µM (inactive).

The values above are taken from ChEMBL document CHEMBL1201862, “PubChem BioAssay data set” (2004).
